Measured values: US20240065988A1, “COMBINED USE OF KETAMINE AND RETIGABINE (EZOGABINE) FOR THE TREATMENT OF PSYCHIATRIC DISORDERS” (Yeda Research and Development Co. Ltd., priority 2021, published 2024)
“Also recorded” adds a separate entry of the source.

Key:
[1] = test system: ventral hippocampus bulk tissue; assay: Bulk qPCR mRNA levels in brain punches (tissue homogenates) from the vHipp; format: in vivo, mouse; conditions: ketamine 10 mg/kg, 2 days
mice = assay: Home cage activity (locomotion); format: in vivo, mouse; conditions: 60-min period following treatment and 2 days post injection
Experimental: The home cage activity was measured with the Mouse-E-Motion infrared-detecting devices (Infra-e-motion, Germany). Mice were single housed in fresh cages, and a metal food tray was employed to hold the devices in place. The base bedding was kept, but extra nesting materials that could conceal the animal were removed. The readout lasted 2 days (post-injection) during which time the animals were not disturbed. Locomotor activity was detected in 5-minute increments and averaged by the hour. The final analysis was applied to the first 60-minute period and the 48 hours (2 days), post injection.

mice (C57BL/6N) = assay: Forced swim test (FST), pharmacological manipulation of KCNQ; format: in vivo, mouse
Experimental: C57BL/6N and CD-1 (ICR) male mice aged 10 weeks old were used in these experiments. Ketamine hydrochloride (Ketaset, Zoetis, Germany) was diluted in 0.9% NaCl solution (saline) and administered i.p at 1, 5 or 10 mg/kg BW, depending on the experiment design. The KNCQ inhibitor, XE991 (Alomone labs; Cat #: X-100) was diluted in 5% DMSO and administered i.p at 1 or 3 mg/kg BW. The KCNQ activator, Retigabine (Alomone labs; Cat #: R-100), was diluted in 5% DMSO and administered i.p at 1 or 5 mg/kg BW. As control, mice were injected with a DMSO-saline solution (5% DMSO). For all experiments, mice were tested 30 minutes after injection in the FST or over a period of 36 hours after injection in the social boxes.
Previous studies in rodents have shown that KCNQ function can be regulated with highly-specific agonists and antagonists [V. Barrese et al., Annu Rev Pharmacol Toxicol (2018) 58: 625-648]. To further explore the KCNQ channel as a potential therapeutic target of ketamine, it was examined whether pharmacological inhibition of KCNQ alone or in combination with ketamine had any effects on behavior. To accomplish this, a new cohort of mice received two injections with a combination of drugs. […] To assess the effects of ketamine, XE991 (KCNQ inhibitor), and its combination, these mice were exposed to a FST (FIG. 7A, left). […] The inventors then sought to test whether the effects of ketamine could be mimicked, increased or amplified using retigabine, also known as ezogabine, a selective KCNQ (Kcnq2/3) channel activator. Similarly to the previous experiment, mice were treated with saline, (R,S)-ketamine (10 mg/kg BW), or ketamine in combination with two different concentrations of retigabine (1 and 5 mg/kg BW) (FIG. 7A, right).
Next, it was examined whether retigabine could increase the sustained antidepressant-like effects produced by a single injection of ketamine in mice. Accordingly, a new cohort of mice were treated with a single dose of saline, ketamine, or ketamine in combination with retigabine (1 mg/kg) and antidepressant-like behaviors were assessed using the FST, 5—and 7-days post-injection (FIG. 8A). […] Next, as a potential therapeutic strategy for major depressive disorder (MDD), the synergistic effects of ketamine and retigabine was further investigated by testing whether or not retigabine can increase the antidepressant-like effects produced by ketamine in mice. […] Next, it was tested whether retigabine can produce similar synergistic effects in combination with traditional antidepressants. […] Lastly, using a new cohort of Nex-Cre-Ai9 mice, it was tested whether the adjunctive treatment of ketamine with retigabine, or escitalopram alone, could modify the expression of Kcnq2 mRNA in FACS sorted cells from the vHipp (FIG. 8F).

[2] = test system: primary hippocampal neurons; assay: qPCR mRNA expression in primary hippocampal neurons treated with ketamine or HNKet; format: cell-based, mouse; conditions: 10 μM
Experimental: Primary hippocampal neurons were generated from E16.5 embryos using a standard primary neuron cell culture protocol previously described [K. G. Schraut et al., Eur JNeurosci (2021) 53: 390-401]. Briefly, dissected hippocampi were harvested in ice-cold dissection medium (HBSS, 7 mM HEPES, 2 mM L-glutamine, 500 U/ml penicillin-streptomycin, all Thermo Fisher Scientific). The tissue was incubated for 10 minutes in 0.25% Trypsin-EDTA with 8 mM HEPES (Thermo Fisher Scientific) in a water bath at 37° C. Tissue was washed three times with serum medium (DMEM, 10% FBS, Thermo Fisher Scientific). The cells were dissociated by titration using glass Pasteur pipets 10 in serum medium and filtered with a 70 tm cell strainer (Corning). Cell culture plates were coated overnight with 0.05 mg/ml poly-D-lysine mol wt 70,000-150,000 (Sigma Aldrich) in 0.15 M borate buffer (pH=8.5). Cells were seeded in 24-well plates at a density of 5×10^4 cells in 1 ml growth medium (Neurobasal A medium, 1 x B27 supplement, 0.25×GlutaMAX, all Thermo Fisher Scientific) per well. All cultures were kept in a humidified incubator at 37° C. and 5% CO2. Growth medium was renewed after 7 days of culture. For all experiments, mature twenty-one-day old primary neuronal cultures were used.
Primary hippocampal neurons were generated from E16.5 embryos and cultured for 21 days, as described above (see Primary Cell Culture). For experiment 1 (FIGS. 3A-K), neurons were treated with a saline solution, (R,S)-ketamine (10 μM) (Ketaset, Zoetis, Germany) or (2R,6R)-HNKet (10 μM) (Sigma, Cat #SML1873-25MG) for 0, 2, 12, 24 or 48 hours and compared to untreated controls. For experiment 2 (FIGS. 6A-D), neurons were stimulated with either a saline solution, (2R,6R)-HNKet (10 μM), or a combination of (2R,6R)-HNKet (10 μM) plus nifedipine (10 μM) (Tocris Bioscience, Cat #1075), W-7 hydrochloride (10 μM) (Tocris, Cat #0369), or cyclosporine-A (1 μM) (Tocris, Cat #1101) for 30 minutes, 1, 2, or 6 hours, and compared to untreated controls.
Ketamine treatment regulates Kcnq2 in primary hippocampal neurons To corroborate the previous findings in glutamatergic neurons, it was next examined whether treatment of primary hippocampal neurons with either (R,S)-ketamine or its active metabolite, (2R,6R)-hydroxynorketamine (HNKet), could modify the mRNA expression of the 8 genes tested earlier in glutamatergic neurons. Mouse primary hippocampal neurons are mostly made up of glutamatergic neurons and therefore make a very good model system to further validate the previous in vivo findings. […]

CNC1(c2ccccc2Cl)CCCCC1=O (racemic) [ketamine, (R,S)-ketamine]
bulk mRNA expression of the 8 genes, ketamine vs saline [1]: did not reach statistical significance
locomotor activity (home cage), ketamine vs saline (mice): no differences in total activity between groups; also recorded: no significant difference in the locomotion activity
immobility time during the FST (mice (C57BL/6N); (R,S)-ketamine 10 mg/kg/BW, dose series (FIG. 8E, FIG. 26A)): significant reduction of immobility time
antidepressant-like effects in the FST (mice (C57BL/6N); (R,S)-ketamine 1 and 5 mg/kg/BW): failed to produce antidepressant-like effects
immobility time during the FST (mice (C57BL/6N); ketamine 10 mg/kg BW alone vs saline (FIGS. 23A-B)): significant decrease in immobility time; also recorded: significant effect
FST effect at day 7 post-injection (mice (C57BL/6N); single dose of ketamine alone): disappeared by day 7
duration of the FST effect post-injection (mice (C57BL/6N); single dose of ketamine alone): up to five days
immobility time during the FST, sustained effect (mice (C57BL/6N); single dose of ketamine alone, several days post-injection (day 5)): significant decrease in immobility time
mRNA expression of Hspa8, Snap25, Hsp90ab1, Ndufa4, Ilf2, E2f1 and Kcnq2 ([2]; 2, 12, 24 or 48 hours): significant changes
Kcnq2 mRNA expression ([2]; 2, 12, 24 or 48 hours vs untreated and saline controls): significant upregulation at all time points tested
